For one assay, the target named is T1, murine slc26a3 (Mus musculus, UniProt Q9WVC8).
T1 construct: host or cells: Fischer rat thyroid (FRT) cells expressing YFP, clonal line FRT-YFP-slc26a3
T1 sequence (Q9WVC8 1-757): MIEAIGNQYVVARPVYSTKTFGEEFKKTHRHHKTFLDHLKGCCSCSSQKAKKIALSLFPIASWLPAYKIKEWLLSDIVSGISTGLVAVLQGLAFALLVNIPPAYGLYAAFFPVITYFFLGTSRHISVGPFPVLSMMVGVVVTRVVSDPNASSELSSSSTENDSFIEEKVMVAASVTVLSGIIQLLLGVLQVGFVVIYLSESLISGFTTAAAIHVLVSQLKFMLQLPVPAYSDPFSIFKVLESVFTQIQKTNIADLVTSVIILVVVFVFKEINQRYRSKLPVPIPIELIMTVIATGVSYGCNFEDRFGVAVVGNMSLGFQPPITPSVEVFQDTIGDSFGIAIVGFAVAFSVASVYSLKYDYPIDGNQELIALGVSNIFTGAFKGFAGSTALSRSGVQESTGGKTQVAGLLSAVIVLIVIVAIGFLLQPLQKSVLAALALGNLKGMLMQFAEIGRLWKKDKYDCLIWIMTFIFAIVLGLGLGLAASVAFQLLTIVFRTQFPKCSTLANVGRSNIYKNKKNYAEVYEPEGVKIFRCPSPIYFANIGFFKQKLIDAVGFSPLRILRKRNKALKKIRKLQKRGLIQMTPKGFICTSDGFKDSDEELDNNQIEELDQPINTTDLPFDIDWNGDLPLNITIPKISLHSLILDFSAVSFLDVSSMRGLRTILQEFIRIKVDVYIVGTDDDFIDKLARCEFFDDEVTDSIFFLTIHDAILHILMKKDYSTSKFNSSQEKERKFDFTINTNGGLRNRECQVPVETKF
The experiment in a line: slc26a3-mediated Cl-/I- exchange, YFP fluorescence quenching in FRT-YFP-slc26a3 cells. Format: cell-based.

The next assay has as its target T2, slc26a9 (Mus musculus, UniProt Q8BU91).
T2 construct: host or cells: HEK293 cells
T2 sequence (Q8BU91 1-790): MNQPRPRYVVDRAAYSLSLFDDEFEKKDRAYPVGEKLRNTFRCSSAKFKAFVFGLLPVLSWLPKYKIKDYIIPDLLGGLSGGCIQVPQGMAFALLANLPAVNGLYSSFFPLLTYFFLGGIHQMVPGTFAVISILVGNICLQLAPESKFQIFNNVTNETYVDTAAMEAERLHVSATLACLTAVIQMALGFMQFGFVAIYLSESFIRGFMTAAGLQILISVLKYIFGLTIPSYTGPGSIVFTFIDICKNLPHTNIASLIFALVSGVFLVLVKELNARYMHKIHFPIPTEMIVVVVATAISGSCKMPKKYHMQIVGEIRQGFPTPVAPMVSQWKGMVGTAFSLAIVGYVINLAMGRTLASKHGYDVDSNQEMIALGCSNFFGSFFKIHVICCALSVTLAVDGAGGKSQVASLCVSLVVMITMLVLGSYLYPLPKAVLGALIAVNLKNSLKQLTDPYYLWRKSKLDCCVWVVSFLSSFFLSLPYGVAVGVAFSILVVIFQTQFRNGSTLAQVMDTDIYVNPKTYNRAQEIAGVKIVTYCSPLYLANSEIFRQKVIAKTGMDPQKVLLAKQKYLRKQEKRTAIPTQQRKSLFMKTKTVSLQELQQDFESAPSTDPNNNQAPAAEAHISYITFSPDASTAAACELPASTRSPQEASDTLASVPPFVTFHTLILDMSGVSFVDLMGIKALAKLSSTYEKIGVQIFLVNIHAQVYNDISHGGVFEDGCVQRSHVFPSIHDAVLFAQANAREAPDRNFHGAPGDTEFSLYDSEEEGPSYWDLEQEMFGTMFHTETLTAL
The experiment in a line: Selectivity: slc26a9 Cl-/I- exchange in HEK293 cells. The assay is classed as cell-based, murine. To be noted: 10 µM. An excerpt: To investigate Compound A1 selectivity, transport assays were done on a panel of SLC26-family homologs, and other relevant epithelial ion transporters and channels. […] In separate studies, to investigate possible action of Compound A1 on multiple ion transporters and channels in a human epithelium, human bronchial epithelial (HBE) cells were studied by short-circuit current, with successive additions of amiloride (to block the epithelial sodium channel ENaC), forskolin, CFTRinh-172 (to block CFTR), and ATP (to activate the Ca^2+-activated chloride channel, CaCC) (FIG. 5C).
HEK293 cells transfected with pIRES-YFP-slc26a9 were plated in 96-well black-walled, clear-bottom tissue culture plates (Corning Life Sciences, Tewksbury, MA) after coating with FNC Coating Mix (AthenaES, Baltimore, MD). […] Assays of slc26a9-mediated anion exchange were done by initially recording YFP fluorescence prior to addition of 100 µL of NaI-substituted PBS to test wells, with the initial rate of Cl^-/I^- exchange deduced from fluorescence intensity by single exponential regression. […] To assay SLC26A3 function, HEK293 cells transduced with lentiviral particles generated from the pLVX-IRES-mCherry-SLC26A3 transfer vector were transfected to express YFP for Cl^-/I^- exchange assays as described above; red fluorescence images were acquired to confirm SLC26A3 expression in cells. […]

From patent publication US20230339878A1, “SLC26A3 INHIBITORS AND USE THEREOF” (THE REGENTS OF THE UNIVERSITY OF CALIFORNIA, priority 2018, published 2023) come the findings set out here.

Entries after “also recorded” stand apart in the source; their conditions may differ.

Turning to `Cc1c(CC(=O)O)c(=O)oc2c(C)c(OCc3cccc(Br)c3)ccc12` [Compound A1], on murine slc26a3 (1 µM, incubation for different times prior to Cl-/I- exchange), the t½ for inhibition is listed as ~ 30 s. Moreover, the concentration for half-maximal inhibition (IC50) – broadly, the concentration needed to halve the response being measured – at murine slc26a3 (summary over three anion exchange modes, read-out: IC50 for slc26a3-mediated Cl- exchange with HCO3-, I- and SCN-) is around 200 nM. On slc26a9, the “effect on Cl-/I- exchange activity of slc26a9” value is recorded as “did not alter; also recorded: differences not significant”.
